Read-outs that look alike come from different tables or passages of the source. Where a SMILES comes first, the peptide text is derived from it. The star is where a group is joined. Cbz = O=C(OCc1ccccc1)*
Legend:
[1] = system: C6 plasma membrane associated metalloendoprotease; test: Enzyme assay: cbz-FAF[125I]Y-NH2 degradation by C6 plasma membranes with protease blockers; format: biochemical, rat
Procedure: For most experiments, 70-80% confluent cell layers (1 cm^2 wells, 100 μl MEMα) or 2-5 μg C6 plasma membrane (100 μl MEMα) were used. […] If indicated, cell layers or plasma membrane suspensions were preincubated for 30 min with protease blockers or peptides. NEM or iodacetamide incubations of plasma membranes were performed at pH 8.5. The incubation was stopped by loading a 10 μl aliquot of the incubation medium on a thin layer chromatography plate (10 cm height, Kieselgel 60 F254, MERCK, Germany) and air dried. […] Plates were then air dried and exposed on Kodak X-OMAT films (NY, USA) with an intensifying screen. To identify the degradation products on thin-layer chromatography, we run reference peptides under the same conditions.
For the quantification of the activity, the reaction was stopped by addition of an equal volume of chloroform. […] Activity is expressed as % radioactivity contained in the aqueous phase. 100% is the sum of the radioactivity of both phases.

[2] = system: C6 glioblastoma cells; test: cells; format: cell-based, rat; conditions: for IC50: 2 h
Procedure: Rat C6 glioblastoma cells (Benda et al., 1968, Science 161:370-371) were cultured in Dulbecco's modified Eagle's medium (DMEM) supplemented with 10% fetal calf serum (FCS), usually to maximally 70-80% confluency (Paganetti et al., 1988, J. Cell Biol. 107:2281-2291). All cell culture media were routinely supplemented with penicillin and streptomycin. Cells were harvested by a short trypsin treatment (0.1% in Ca^2+/Mg^2+-free [CMF] PBS/EDTA solution for 90 seconds) followed by addition of DMEM/10% FCS and centrifugation (600×g, 6 min). The cell pellet was rinsed with 5 ml DMEM/10% FCS and centrifuged. For cell spreading assays, cells were resuspended at 10^6/ml in defined serum-free medium (MEMα) supplemented with 0.2 μg/ml insulin, 0.5 μg/ml transferrin and 0.12 μg/ml bovine serum albumin (BSA). Protease blockers or peptides were added directly to the cell suspension from 10×solutions 10 min before plating.
Spinal cord myelin from young adult Lewis rats was purified on a discontinuous sucrose gradient (Colman et al., 1982, J. Cell Biol. 95:598-608; Schwab and Caroni, 1988, J. Neurosci. 8:2381-2393) and stored in 100 mM sucrose, 25 mM TRIS/HCl pH 7.4 at −80° C. up to 6 months. The myelin suspension ([…]) was incubated for 30 min on poly-D-lysine-coated wells (PLYS-wells). Unbound myelin membranes were removed by rinsing twice with CMF-Hank's and once with MEMα. Myelin-coated wells were used immediately for the spreading assay by adding 9'000 C6 cells per cm^2. Experiments were scored as described (Paganetti et al., 1988, J. Cell Biol. 107:2281-2291).

[3] = system: C6 cells; test: C6 cell spreading on CNS myelin or PLYS with protease inhibitors; format: cell-based, rat; conditions: for Inhibition on CNS (%): C6 cells, spreading on PLYS minus spreading on CNS myelin; for Effect on C6 cell spreading on CNS myelin, in words: Section 9
Procedure: Rat C6, mouse NIH 3T3 and B16 cells were cultured in Dulbecco's modified Eagle's medium (DMEM) supplemented with 10% fetal calf serum (FCS), usually to maximally 70-80% confluency. Cells were harvested with a short trypsin treatment (0.1% in Ca^2+/Mg^2+-free Hank's medium for 90 seconds) stopped by addition of FCS in excess, collected by centrifugation. Cells were resuspended in either DMEM/FCS or defined serum-free medium (MEM) and used for experiments. Dissociated rat CNS glial cells were prepared starting from optic nerves of 6-7 days old Lewis rats as described in Section 6.1.1, supra and plated into poly-D-lysine (PLYS) coated wells (100 mm^2, 100 μl medium) at a density of 20,000 cells per well. The culture medium was an enriched L15 medium with 5% rat serum, penicillin and streptomycin. C6, 3T3 and B16 cells were added to 2 day old cultures at a concentration of 30,000 cells per well, incubated for two hours and fixed with warm 4% formalin in phosphate buffer. Inhibitory oligodendrocytes were identified by double labelling using the specific antibodies O1 and O4 (see Section 6.1.3, supra).
Myelin from rat spinal cord (CNS) or sciatic nerve (PNS) purified on a discontinuous sucrose gradient as described in Section 6.1.5., was dried overnight onto PLYS coated wells (20 μg protein/well of 100 mm^2 surface). Unbound membranes were removed by three washes with Ca^2+/Mg^2+-free Hank's solution. Myelin coated wells were immediately used in substrate testing assays by the addition of 9,000 cells (C6, 3T3, or B16) per cm^2. Alternatively, we used extracted CNS myelin protein, or SDS-PAGE purified 35 and 250 kD inhibitory proteins reconstituted in liposomes (see Section 7.1.5, supra). Experiments were scored at different time points using a phase contrast microscope equipped with a photocamera. Quantifications were done using a surface integration program; three arbitrary fields were photographed for each well at a magnitude of 80×, at least 25 cells per picture were measured. Each point represents the mean of at least 3 wells±SEM. Results are expressed as μ^2 of projected cell surface, or as degree, which was calculated by subtracting from the projected surface value of a spreading cell, the surface value of a completely spheric cell.

[4] = C6 cell spreading on CNS myelin, read-out: IC50 on CNS myelin

C[C@H](CS)C(=O)N1CCC[C@H]1C(=O)O [Captopril]
Effect on cbz-FAF[^125I]Y-NH2 degradation by C6 plasma membranes, in words [1]: had no effect

C[C@H](NC(=O)[C@@H](N)Cc1ccccc1)C(=O)N[C@@H](Cc1ccccc1)C(=O)N[C@@H](Cc1ccc(O)cc1)C(N)=O [FAFY-NH2] (H-FAFY-NH2; N-terminus assumed)
IC50 [2, 4]: 300 µM

CCN1C(=O)C=CC1=O [N-ethylmaleimide]
Effect on cbz-FAF[^125I]Y-NH2 degradation by C6 plasma membranes, in words [1]: had no effect

O=S(=O)(F)Cc1ccccc1 [PMSF, Phenyl methyl sulfonyl fluoride]
Inhibition on CNS (%) [3]: 6%
Effect on cbz-FAF[^125I]Y-NH2 degradation by C6 plasma membranes, in words [1]: had no effect

CC(C)C[C@H](NC(=O)[C@@H](O)[C@H](N)Cc1ccccc1)C(=O)O [bestatine]
Inhibition on CNS (%) [3]: 0%
Effect on C6 cell spreading on CNS myelin, in words [3]: did not impair C6 cell spreading
Effect on cbz-FAF[^125I]Y-NH2 degradation by C6 plasma membranes, in words [1]: did not affect overall activity
Effect on formation of Y-NH2 from cbz-FAF[^125I]Y-NH2, in words [1]: specifically inhibited the formation of Y-NH2

C[C@H](NC(=O)OCc1ccccc1)C(=O)N[C@@H](Cc1ccccc1)C(N)=O [cbz-AF-NH2, carbobenzoxy-alanine-phenylalanine-amide]
IC50 [2, 4]: 600 µM

C[C@H](NC(=O)OCc1ccccc1)C(=O)N[C@@H](Cc1ccccc1)C(=O)N[C@@H](Cc1ccc(O)cc1)C(N)=O [cbz-AFY-NH2]
Effect on C6 cell spreading on CNS myelin, in words ([2]; Section 11): strong inhibition of cell spreading

C[C@H](NC(=O)[C@H](Cc1ccccc1)NC(=O)OCc1ccccc1)C(N)=O [cbz-FA-NH2]
IC50 [2, 4]: 600 µM

C[C@H](NC(=O)[C@H](Cc1ccccc1)NC(=O)OCc1ccccc1)C(=O)N[C@@H](Cc1ccccc1)C(=O)N[C@@H](Cc1ccc(O)cc1)C(N)=O [cbz-FAFY-NH2, carbobenzoxy-Phe-Ala-Phe-Tyr-amide] (Cbz-FAFY-NH2)
IC50 [2]: 3 µM
Effect on C6 cell spreading on CNS myelin, in words ([2]; Section 11): clearly impaired C6 cell spreading on CNS myelin
Effect on C6 cell spreading on PLYS-coated wells, in words ([2]; Section 11): had no effect on PLYS-coated wells

COC(=O)[C@H](Cc1ccccc1)NC(=O)[C@H](Cc1ccccc1)NC(=O)CNC(=O)OCc1ccccc1 [cbz-GFF-OCH3] (Cbz-Gly-Phe-Phe-OMe)
IC50 [2]: 5 µM
Effect on C6 cell spreading on CNS myelin, in words ([2]; Section 11): strong inhibition of cell spreading

O=C(CNC(=O)OCc1ccccc1)N[C@@H](Cc1ccccc1)C(=O)N[C@@H](Cc1ccccc1)C(=O)O [cbz-GFF] (Cbz-Gly-Phe-Phe-OH; C-terminus assumed)
IC50 [2]: 300 µM

CC(C)C[C@H](NC(=O)CNC(=O)OCc1ccccc1)C(=O)N[C@@H](Cc1ccccc1)C(N)=O [cbz-GLF-NH2] (Cbz-Gly-Leu-Phe-NH2)
IC50 [2]: 5 µM

NC(=O)CI [iodacetamide]
Effect on cbz-FAF[^125I]Y-NH2 degradation by C6 plasma membranes, in words [1]: had no effect

CC(C)C[C@H](NP(=O)(O)O[C@@H]1O[C@@H](C)[C@H](O)[C@@H](O)[C@H]1O)C(=O)N[C@@H](Cc1c[nH]c2ccccc12)C(=O)O [phosphoramidon]
Inhibition on CNS (%) [3]: 9%
Effect on C6 cell spreading on CNS myelin, in words [3]: did not impair C6 cell spreading
Effect on cbz-FAF[^125I]Y-NH2 degradation by C6 plasma membranes, in words [1]: had no effect

Carboxymethyl-phe-leu [cm-phe-leu]
Inhibition on CNS (%) [3]: 3%
Effect on C6 cell spreading on CNS myelin, in words [3]: did not inhibit C6 cell spreading
Effect on cbz-FAF[^125I]Y-NH2 degradation by C6 plasma membranes, in words [1]: had no effect
